The source of these data is patent publication US20230089073A1 (Carmot Therapeutics, Inc., priority 2021, published 2023).

This assay deals with T1, human GLP-1 receptor (Homo sapiens, UniProt P43220).
T1 construct: expressed in transfected cells
T1 sequence (P43220 24-463): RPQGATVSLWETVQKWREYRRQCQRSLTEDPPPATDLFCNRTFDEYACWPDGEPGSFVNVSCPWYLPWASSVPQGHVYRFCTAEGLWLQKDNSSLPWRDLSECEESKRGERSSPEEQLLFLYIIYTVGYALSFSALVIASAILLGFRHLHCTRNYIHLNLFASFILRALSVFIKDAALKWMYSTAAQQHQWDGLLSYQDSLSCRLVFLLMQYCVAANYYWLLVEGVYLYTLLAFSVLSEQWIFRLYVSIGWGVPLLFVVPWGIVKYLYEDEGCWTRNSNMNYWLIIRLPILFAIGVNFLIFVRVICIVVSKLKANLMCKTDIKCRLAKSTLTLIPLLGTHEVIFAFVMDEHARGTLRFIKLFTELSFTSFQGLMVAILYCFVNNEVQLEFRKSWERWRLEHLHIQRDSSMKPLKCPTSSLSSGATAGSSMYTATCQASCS
Kind of assay: GLP-1R cAMP Assay. Format: cell-based. Particulars: cAMP accumulation in CHO cells stably overexpressing the human GLP-1 receptor; 30 min treatment; HitHunter cAMP kit; read-out: EC50. The gist of the method:
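Luminescent enzyme-complementation detection of cAMP, read after cell lysis and overnight incubation, with dose-response curve fitting. Stimulation lasted 30 min, using 20-point triplicate dosing on CHO cells (10,000 per well) stably overexpressing human GLP-1R.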
Background: Changes in cAMP serve as a functional read-out for many G protein-coupled receptors.
In general, EC50 refers to the concentration needed to bring the measured effect to its halfway point. `O=C(O)c1cc(F)c2nc(CN3CCC(N(CC4CC4)c4ccnc(COc5ccc(Cl)cc5F)n4)CC3)n(C[C@@H]3CCO3)c2c1` [Compound 511, 2-{[4-({2-[(4-chloro-2-fluorophenoxy)methyl]pyrimidin-4-yl}(cyclopropylmethyl)amino)piperidin-1-yl]methyl}-4-fluoro-1-{[(2S)-oxetan-2-yl]methyl}-1H-1,3-benzodiazole-6-carboxylic acid]: the half-maximal effective concentration (EC50) was < 50 nM.
On to `C[C@H]1C[C@@H](Oc2ccnc(COc3ccc(F)cc3F)n2)CCN1Cc1nc2ncc(C(=O)O)cc2n1C[C@@H]1CCO1` [Compound 512, 2-{[(2S,4S)-4-({2-[(2,4-difluorophenoxy)methyl]pyrimidin-4-yl}oxy)-2-methylpiperidin-1-yl]methyl}-1-{[(2S)-oxetan-2-yl]methyl}-1H-imidazo[4,5-b]pyridine-6-carboxylic acid], for which the EC50 is > 500 nM.
Consider `C[C@H]1C[C@@H](Oc2ccnc(COc3ccc(C#N)cc3F)n2)CCN1Cc1nc2ncc(C(=O)O)cc2n1C[C@@H]1CCO1` [Compound 513, 2-{[(2S,4S)-4-({2-[(4-cyano-2-fluorophenoxy)methyl]pyrimidin-4-yl}oxy)-2-methylpiperidin-1-yl]methyl}-1-{[(2S)-oxetan-2-yl]methyl}-1H-imidazo[4,5-b]pyridine-6-carboxylic acid], for which the EC50 is < 50 nM.
Consider `C[C@H]1C[C@@H](Oc2ccnc(COc3cc(F)c(F)cc3F)n2)CCN1Cc1nc2ccc(C(=O)O)cc2n1C[C@@H]1CCO1` [Compound 514, 2-{[(2S,4S)-2-methyl-4-({2-[(2,4,5-trifluorophenoxy)methyl]pyrimidin-4-yl}oxy)piperidin-1-yl]methyl}-1-{[(2S)-oxetan-2-yl]methyl}-1H-1,3-benzodiazole-6-carboxylic acid], for which the EC50 was < 50 nM.
For `C[C@H]1C[C@@H](Oc2ccnc(COc3ccc(C#N)cc3F)n2)CCN1Cc1nc2ccc(C(=O)O)cc2n1C[C@H]1CCOC1` [Compound 515, 2-{[(2S,4S)-4-({2-[(4-cyano-2-fluorophenoxy)methyl]pyrimidin-4-yl}oxy)-2-methylpiperidin-1-yl]methyl}-1-{[(3R)-oxolan-3-yl]methyl}-1H-1,3-benzodiazole-6-carboxylic acid], the EC50 is < 50 nM.
Consider `CN(C)c1cc(C(=O)N2CCN(Cc3nc4ccc(C(=O)O)cc4n3C[C@@H]3CCO3)CC2)ncn1` [Example 1, (S)-2-((4-(6-(Dimethylamino)pyrimidine-4-carbonyl)piperazin-1-yl)methyl)-1-(oxetan-2-ylmethyl)-1H-benzo[d]imidazole-6-carboxylic acid], for which the half-maximal effective concentration (EC50) was 50 to 500 nM.
`O=C(O)c1ccc2nc(CN3CCN(C(=O)c4cccc(Oc5ccc(C(F)(F)F)cc5Cl)c4)CC3)n(C[C@@H]3CCO3)c2c1` [Example 2, (S)-2-((4-(3-(2-Chloro-4-(trifluoromethyl)phenoxy)benzoyl)piperazin-1-yl)methyl)-1-(oxetan-2-ylmethyl)-1H-benzo[d]imidazole-6-carboxylic acid]: the concentration for a half-maximal effect (EC50) was > 500 nM.
Under `N#Cc1ccc(Oc2cccc(C(=O)N3CCN(Cc4nc5ccc(C(=O)O)cc5n4C[C@@H]4CCO4)CC3)c2)c(F)c1` [Example 10, (S)-2-((4-(3-(4-Cyano-2-fluorophenoxy)benzoyl)piperazin-1-yl)methyl)-1-(oxetan-2-ylmethyl)-1H-benzo[d]imidazole-6-carboxylic acid] stands > 500 nM.
Take `Cc1ccccc1Oc1cccc(C(=O)N2CCN(Cc3nc4ccc(C(=O)O)cc4n3C[C@@H]3CCO3)CC2)c1` [Example 14, (S)-1-(Oxetan-2-ylmethyl)-2-((4-(3-(o-tolyloxy)benzoyl)piperazin-1-yl)methyl)-1H-benzo[d]imidazole-6-carboxylic acid]: the EC50 is > 500 nM.
As for `Cc1c(Cl)cccc1OCc1ccc(C(=O)N2CCN(Cc3nc4ccc(C(=O)O)cc4n3C[C@@H]3CCO3)CC2)o1` [Example 19, (S)-2-((4-(5-((3-Chloro-2-methylphenoxy)methyl)furan-2-carbonyl)piperazin-1-yl)methyl)-1-(oxetan-2-ylmethyl)-1H-benzo[d]imidazole-6-carboxylic acid], the EC50 is 50 to 500 nM.
For the compound `O=C(O)c1ccc2nc(CN3CCN(Cc4ccc(COc5ccccc5)o4)CC3)n(C[C@@H]3CCO3)c2c1` [Example 20, (S)-1-(Oxetan-2-ylmethyl)-2-((4-((5-(phenoxymethyl)furan-2-yl)methyl)piperazin-1-yl)methyl)-1H-benzo[d]imidazole-6-carboxylic acid], the 50% effective concentration (EC50) is > 500 nM.
With `O=C(O)c1ccc2nc(CN3CCN(Cc4cc5ccc(-c6ccc(Cl)cc6Cl)cc5o4)CC3)n(C[C@@H]3CCO3)c2c1` [Example 27, (S)-2-((4-((6-(2,4-Dichlorophenyl)benzofuran-2-yl)methyl)piperazin-1-yl)methyl)-1-(oxetan-2-ylmethyl)-1H-benzo[d]imidazole-6-carboxylic acid], the concentration for a half-maximal effect (EC50) was > 500 nM.
With `Cc1ccc(Cc2cccc(C(=O)N3CCN(Cc4nc5ccc(C(=O)O)cc5n4C[C@@H]4CCO4)CC3)c2)c(Cl)c1` [Example 32, (S)-2-((4-(3-(2-Chloro-4-methylbenzyl)benzoyl)piperazin-1-yl)methyl)-1-(oxetan-2-ylmethyl)-1H-benzo[d]imidazole-6-carboxylic acid], the half-maximal effective concentration (EC50) was in the range of 50 to 500 nM.
As for `Cc1ccc(Oc2cc(C(=O)N3CCN(Cc4nc5ccc(C(=O)O)cc5n4C[C@@H]4CCO4)CC3)ncn2)cc1` [Example 34, (S)-1-(Oxetan-2-ylmethyl)-2-((4-(6-(p-tolyloxy)pyrimidine-4-carbonyl)piperazin-1-yl)methyl)-1H-benzo[d]imidazole-6-carboxylic acid], the EC50 was < 50 nM.
In the case of `O=C(O)c1ccc2nc(CN3CCN(C(=O)c4ccc(COc5ccc(Cl)cc5F)o4)CC3)n(C[C@@H]3CCO3)c2c1` [Example 36, (S)-2-((4-(5-((4-Chloro-2-fluorophenoxy)methyl)furan-2-carbonyl)-piperazin-1-yl)methyl)-1-(oxetan-2-ylmethyl)-1H-benzo[d]imidazole-6-carboxylic acid], the concentration giving a half-maximal response (EC50) was > 500 nM.
On to `Cc1ccc2oc3cc(C(=O)N4CCN(Cc5nc6ccc(C(=O)O)cc6n5C[C@@H]5CCO5)CC4)ccc3c(=O)c2c1` [Example 44, (S)-2-((4-(7-Methyl-9-oxo-9H-xanthene-3-carbonyl)piperazin-1-yl)methyl)-1-(oxetan-2-ylmethyl)-1H-benzo[d]imidazole-6-carboxylic acid], for which the concentration giving a half-maximal response (EC50) is 50 to 500 nM.
`CCn1cncc1Cn1c(CN2CCN(C(=O)c3cccc(N(C)c4ccc(C)cc4)c3)CC2)nc2ccc(C(=O)O)cc21` [Example 46, 1-((1-Ethyl-1H-imidazol-5-yl)methyl)-2-((4-(3-(methyl(p-tolyl)amino)benzoyl)piperazin-1-yl)methyl)-1H-benzo[d]imidazole-6-carboxylic acid]: the EC50 is 50 to 500 nM.
As to `CCn1cncc1Cn1c(CN2CCN(C(=O)c3cccc(Oc4ccc(C)cc4Cl)c3)CC2)nc2ccc(C(=O)O)cc21` [Example 57, 2-((4-(3-(2-Chloro-4-methylphenoxy)benzoyl)piperazin-1-yl)methyl)-1-((1-ethyl-1H-imidazol-5-yl)methyl)-1H-benzo[d]imidazole-6-carboxylic acid], the half-maximal effective concentration (EC50) was in the range of 50 to 500 nM.
Under `O=C(O)c1ccc2nc(CN3CCN(C(=O)c4ccc(Cc5ccc(Cl)cc5Cl)o4)CC3)n(C[C@@H]3CCO3)c2c1` [Example 59, (S)-2-((4-(5-(2,4-Dichlorobenzyl)furan-2-carbonyl)piperazin-1-yl)methyl)-1-(oxetan-2-ylmethyl)-1H-benzo[d]imidazole-6-carboxylic acid] stands 50 to 500 nM; under `O=C(O)c1ccc2nc(CN3CCC(Cc4cnc(COc5ccc(Cl)cc5Cl)o4)CC3)n(C[C@@H]3CCO3)c2c1` [Example 60, (S)-2-((4-((2-((2,4-Dichlorophenoxy)methyl)oxazol-5-yl)methyl)piperidin-1-yl)methyl)-1-(oxetan-2-ylmethyl)-1H-benzo[d]imidazole-6-carboxylic acid], < 50 nM; under `CN(c1cc(C(=O)N2CCN(Cc3nc4ccc(C(=O)O)cc4n3C[C@@H]3CCO3)CC2)ncn1)C1CCCCC1` [Example 61, (S)-2-((4-(6-(Cyclohexyl(methyl)amino)pyrimidine-4-carbonyl)piperazin-1-yl)methyl)-1-(oxetan-2-ylmethyl)-1H-benzo[d]imidazole-6-carboxylic acid], > 500 nM.
Turning to `CN(c1ccccc1)c1cc(C(=O)N2CCN(Cc3nc4ccc(C(=O)O)cc4n3C[C@@H]3CCO3)CC2)ncn1` [Example 62, (S)-2-((4-(6-(Methyl(phenyl)amino)pyrimidine-4-carbonyl)piperazin-1-yl)methyl)-1-(oxetan-2-ylmethyl)-1H-benzo[d]imidazole-6-carboxylic acid], the EC50 is > 500 nM.
With `O=C(O)c1ccc2nc(CN3CCC(Cc4ccc(COc5ccc(Cl)cc5Cl)o4)CC3)n(C[C@@H]3CCO3)c2c1` [Example 72, (S)-2-((4-((5-((2,4-Dichlorophenoxy)methyl)furan-2-yl)methyl)piperidin-1-yl)methyl)-1-(oxetan-2-ylmethyl)-1H-benzo[d]imidazole-6-carboxylic acid], the concentration giving a half-maximal response (EC50) was < 50 nM.
On to `O=C(O)c1ccc2nc(CN3CCN(C(=O)c4ccc(OCc5ccc(Cl)cc5Cl)o4)CC3)n(C[C@@H]3CCO3)c2c1` [Example 73, (S)-2-((4-(5-((2,4-Dichlorobenzyl)oxy)furan-2-carbonyl)piperazin-1-yl)methyl)-1-(oxetan-2-ylmethyl)-1H-benzo[d]imidazole-6-carboxylic acid], for which the half-maximal effective concentration (EC50) was > 500 nM.
In the case of `O=C(O)c1ccc2nc(CN3CCN(Cc4ccc(OCc5ccc(Cl)cc5Cl)o4)CC3)n(C[C@@H]3CCO3)c2c1` [Example 74, (S)-2-((4-((5-((2,4-Dichlorobenzyl)oxy)furan-2-yl)methyl)piperazin-1-yl)methyl)-1-(oxetan-2-ylmethyl)-1H-benzo[d]imidazole-6-carboxylic acid], the EC50 was > 500 nM.
